# Reference: patent US20260283917A1, “ANTI-WRINKLE AGENT” (SHISEIDO COMPANY, LTD., priority 2023, published 2026)
# Assays:
# [1] = system: MMP-1; assay: MMP-1 gene expression analysis by real-time PCR in dermal fibroblasts; format: cell-based; conditions: Homo sapiens, NB1RGB, 48 h, read-out: MMP-1 gene expression level
# Procedure: (§1) As the control, a medium not comprising these components was used.
# (§2) RNA concentrations were calculated using OD260 and diluted with TE Buffer to adjust the RNA concentrations to 10 μg/mL.
# (§3) Reverse transcription of RNA was carried out using SuperScript™ IV VILO™ Master Mix with ezDNase (Cat No. 11766050, Invitrogen, USA). 4 μL of SuperScript™ IV VILO™ Master Mix and 6 μL of Nuclease-free Water were added per well in an 8-tube strip and heated at 25° C. for 10 min, 50° C. for 10 min, and 85° C. for 5 min using real-time PCR (QuantStudio (registered trademark) 3, Applied Biosystems, USA) to synthesize cDNA. 10 μL of TaqMan (registered trademark) Fast Advanced Master Mix (Cat No. 4444557, Applied Biosystems, USA), 1 μL of TaqMan Gene Expression, 7 μL of UltraPure™ Distilled Water (Invitrogen, Cat No. 10977-015, USA), and 2 μL of cDNA were added per well in a PCR plate and sealed. A primer (Hs00899658_ml) for MMP-1 and a primer (Hs00153510_ml) for NEP; and a primer (Hs02786624_g1) for GAPDH as an internal standard gene; were used to carry out real-time qPCR, the threshold cycle (Ct) value of each of the MMP-1 gene and the NEP gene in the medium supplemented with each component was calculated, and then Ct value was corrected with GAPDH to obtain a ΔCt value. Assuming that gene level doubles per cycle, when gene expression level of the control was set at 1, the gene expression level in the medium supplemented with each component was determined. In the analysis of gene expression level, the average value of 24-well plate×3 wells was used for each treatment group.
# [2] = system: NEP; assay: NEP gene expression analysis by real-time PCR in dermal fibroblasts; format: cell-based; conditions: Homo sapiens, NB1RGB, 48 h, read-out: NEP gene expression level
# Procedure: as §1, §2, §3
# [3] = system: Type I collagen; assay: Collagen production rate in culture supernatant by sandwich ELISA; format: cell-based; conditions: Homo sapiens, NB1RGB fibroblasts, 48 h, OD405/OD570, no-addition group = 100, read-out: Collagen production rate (%) per cell
# Procedure: A supernatant of the culture cultured in 2-1 was dispensed into a new 96-well plate and frozen for storage (−80° C.). The collagen production rate in the culture supernatant was measured by sandwich ELISA, and the effect of citronellol on the collagen level was evaluated.
# 100 μL of culture supernatant diluted 4-fold with PBS(−) was added to a high-binding 96-well plate, and incubated overnight at 4° C. Type I collagen solution (Cat No. 009-001-103, RCK, USA) was used as a standard substance. […] The dye was uniformized within the 96-well plate, and then absorbance (OD405) at 405 nm was measured using a microplate reader.
# Setting OD405 of the control group at 100%, the collagen production rate of citronellol was calculated. In addition, the OD405 of the control and citronellol were each divided by OD570 measured in 2-2 to calculate the collagen production rate per cell. Setting the collagen production rate per cell in the control group at 100%, the collagen production rate of citronellol per cell was calculated.
# [4] = system: human neonatal dermal fibroblast cell line NB1RGB
# Procedure: After 24 h, the medium was removed and replaced with a medium to which citronellol (CAS number: 106-22-9, Wako Pure Chemical Industries, Ltd.) was added so as to have the final concentration shown in Table 3 below, and the cells were further cultured within the CO2 incubator for 48 h. As the control, a medium not comprising citronellol was used.
# According to the following method, the effect of citronellol on proliferation of dermal fibroblasts was evaluated.
# A 96-well plate from which the medium was removed was washed with 100 μL of PBS(−). 100 μL of 0.5 mg/mL 3-(4,5-dimethylthiazol-2-yl)-2,5-diphenyltetrazolium bromide (MTT, CAS No. 298-93-1, Sigma-Aldrich, USA) solution was then added and incubated within a CO2 incubator for 2 h. After removing the MTT solution and washing with 100 μL of PBS(−), 200 μL of 2-propanol (CAS No. 67-63-0, Wako, Japan) was added to dissolve the insoluble formazan. A dye was uniformly dispersed within the 96-well plate, and then absorbance (OD570) at 570 nm was measured using a microplate reader (SPARK (registered trademark), 10M TECAN, Switzerland). Setting OD570 of the control group at 100%, OD570 of the citronellol-added group, i.e., the effect on cell proliferation, was calculated as the cell-activating effect (%) of citronellol. In the analysis of cell-activating effect, the average value of 96-well plate 9×3 wells was used for each treatment group.
SMILES,fold induction at 50 µM [1],fold induction at 50 µM [2],activity at 50 µM [3] [%],"cell-activating effect / toxicity (proliferation of fibroblasts, MTT) [4]"
CC(C)=CCCC(C)=CCCC(C)=CCO [Farnesol],0.22,0.44,–,–
CC(C)=CCCC(C)CCO (stereo not shown) [Citronellol],0.25,0.85,102,no cell-activating effect or toxicity
c1ccc2[nH]ccc2c1 [Indole],0.36,0.4,–,–
CCCCCOC(=O)CCC [Amyl butyrate],0.24,0.43,–,–
